23 compounds from US8536187B2 (Gilead Sciences, Inc., priority 2008, dated 2013) can be followed below.

Series [1] concerns HCV replicon in human hepatoma Huh-7 cell line. The experiment in a line: Anti-HCV replicon assay, EC50 (luciferase luminescence). The settings on record: Hepatitis C virus, Huh-7, 72 h. It is filed as cell-based. In outline:
(§1)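 Cytotoxicity (CC50) read by CellTiter-Glo luminescence after 10 min, and antiviral EC50 by luciferase signal after 30 min lysis with substrate, both at room temperature. Preceding step: 3-day exposure of 6000 Huh-7 HCV replicon cells per well to compound dilution series at 37° C, 5% CO2, in 0.5% DMSO.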

The nature of series [2]: CC50 assay (CellTiter-Glo) in Huh-7 HCV replicon cells. In kind it is cell-based. The following applies: human. In outline: as §1
In general terms: In ATP-based viability assays light output follows the ATP content of the culture.

Each structure is given as a SMILES string.

The EC50 is the concentration at which the effect is half-maximal. The CC50 is the concentration that lowers cell viability or growth by half. Lower therefore signals greater toxicity to the cells. In the case of `Cc1cc(CNc2nc(NC3(C(F)(F)F)CC3)c3nc(-c4ccc(F)cc4)ccc3n2)cc(S(N)(=O)=O)c1` [Example 82, 3-((6-(4-fluorophenyl)-4-(1-(trifluoromethyl)cyclopropyl-amino)pyrido[3,2-d]pyrimidin-2-ylamino)methyl)-5-methylbenzenesulfonamide], in series [1], the 50% effective concentration (EC50) is < 100 nM. For the same compound, the half-maximal cytotoxic concentration (CC50) at 3 days in series [2] (Table 2, 3 days incubation) is > 10 µM.
As to `COc1ccc(-c2ccc3nc(NCc4cccc(C(F)(F)F)c4)nc(NC4(C(F)(F)F)CC4)c3n2)cc1S(C)(=O)=O` [Example 113, N^2-(3-(trifluoromethyl)benzyl)-6-(4-methoxy-3-(methylsulfonyl)phenyl)-N^4-(1-(trifluoromethyl)cyclopropyl)pyrido[3,2-d] pyrimidine-2,4-diamine], the EC50 in series [1] is 100 to 250 nM. Besides, the CC50 at 3 days in series [2] (Table 2, 3 days incubation) is > 10 µM.
For `CS(=O)(=O)c1cc(-c2ccc3nc(NCc4cccnc4)nc(NCC(F)(F)F)c3n2)ccc1OC(F)F` [Example 178, 6-(4-(difluoromethoxy)-3-(methylsulfonyl)phenyl)-N^2-(pyridin-3-ylmethyl)-N^4-(2,2,2-trifluoroethyl)pyrido [3,2-d]pyrimidine-2,4-diamine], the EC50 in series [1] was < 100 nM. In addition, the CC50 at 3 days in series [2] (Table 2, 3 days incubation) lay within 1 to 10 µM.
On to `[2H]C([2H])([2H])C([2H])([2H])Oc1ccc(-c2ccc3nc(N[C@H](C)c4ccc(-n5cncn5)cc4)nc(NCC(F)(F)F)c3n2)cn1` [Example 255, N^2-((R)-1-(4-(1H-1,2,4-triazol-1-yl)phenyl)ethyl)-6-(6-pentadeuteroethoxypyridin-3-yl)-N^4-(2,2,2-trifluoroethyl) pyrido[3,2-d]pyrimidine-2,4-diamine], for which the half-maximal effective concentration (EC50) in series [1] is < 100 nM. In addition, the CC50 at 3 days in series [2] (Table 2, 3 days incubation) fell in the range of 1 to 10 µM.
Turning to `COc1ccc(-c2ccc3nc(NC(C)c4ccc(-n5cncn5)cc4)nc(NC4(C(F)(F)F)CC4)c3n2)cc1S(C)(=O)=O` (stereo not shown) [Example 97, N^2-(1-(4-(1H-1,2,4-triazol-1-yl)phenyl)ethyl)-6-(4-methoxy-3-(methylsulfonyl)phenyl)-N^4-(1-(trifluoromethyl)cyclopropyl)pyrido[3,2-d] pyrimidine-2,4-diamine], in series [1], the EC50 was < 100 nM. Moreover, the cytotoxic concentration (CC50) at 3 days in series [2] (Table 2, 3 days incubation) is > 10 µM.
As for `NS(=O)(=O)c1ccc(CNc2nc(NC3(C(F)(F)F)CC3)c3nc(-c4ccc(F)cc4)ccc3n2)cc1` [Example 23, 4-{[6-(4-fluoro-phenyl)-4-(1-trifluoromethyl-cyclopropylamino)-pyrido[3,2-d]pyrimidin-2-ylamino]-methyl}-benzenesulfonamide], the concentration for a half-maximal effect (EC50) in series [1] was < 100 nM. In series [2] (Table 2, 3 days incubation), this compound returned a half-maximal cytotoxic concentration (CC50) at 3 days of 1 to 10 µM.
As to `Fc1ccc(-c2ccc3nc(NCc4ccc(-n5ccnc5)cc4)nc(NC4(C(F)(F)F)CC4)c3n2)cc1` [Example 126, N^2-(4-(1H-imidazol-1-yl)benzyl)-6-(4-fluorophenyl)-N^4-(1-(trifluoromethyl)cyclopropyl)pyrido[3,2-d] pyrimidine-2,4-diamine], the EC50 in series [1] was 250 to 2000 nM. In series [2] (Table 2, 3 days incubation), this compound had a CC50 at 3 days of 1 to 10 µM.
For `CC1(Oc2nc(NCc3ccc(-n4cncn4)cc3)nc3ccc(-c4ccc(OC(F)F)c(S(C)(=O)=O)c4)nc23)CC1` [Example 191, N-(4-(1H-1,2,4-triazol-1-yl)benzyl)-6-(4-(difluoro-methoxy)-3-(methylsulfonyl)phenyl)-4-(1-methylcyclo-propoxy)pyrido[3,2-d] pyrimidin-2-amine], in series [1], the EC50 is < 100 nM. The CC50 at 3 days in series [2] (Table 2, 3 days incubation) was > 10 µM.
`Cc1cc(S(N)(=O)=O)ccc1[C@H](C)Nc1nc(NC2(C(F)(F)F)CC2)c2nc(-c3ccc(F)cc3)ccc2n1` [Example 108, (S)-4-(1-(6-(4-fluorophenyl)-4-(1-(trifluoromethyl)cyclopropyl-amino)pyrido[3,2-d]pyrimidin-2-ylamino)ethyl)-3-methylbenzene-sulfonamide] had an EC50 in series [1] of 250 to 2000 nM. Further, the half-maximal cytotoxic concentration (CC50) at 3 days in series [2] (Table 2, 3 days incubation) was > 10 µM.
In the case of `C[C@@H](Nc1nc(OC2CCC2)c2nc(C#CC3CC3)ccc2n1)c1ccc(S(N)(=O)=O)cc1` [Example 305, (R)-4-(1-(4-cyclobutoxy-6-(2-cyclopropylethynyl)pyrido [3,2-d]pyrimidin-2-ylamino)ethyl)benzenesulfonamide], the EC50 in series [1] was < 100 nM. In addition, the cytotoxic concentration (CC50) at 3 days in series [2] (Table 2, 3 days incubation) is > 10 µM.
With `FC(F)(F)C1(Nc2nc(NCc3cccc(-n4cncn4)c3)nc3ccc(-c4ccc(NC5CC5)nc4)nc23)CC1` [Example 70, N^2-(3-(1H-1,2,4-triazol-1-yl)benzyl)-6-(6-(cyclopropylamino)pyridin-3-yl)-N^4-(1-(trifluoromethyl)cyclopropyl) pyrido[3,2-d]pyrimidine-2,4-diamine], the EC50 in series [1] is < 100 nM. Also, in series [2] (Table 2, 3 days incubation), the CC50 at 3 days is > 10 µM.
As for `CS(=O)(=O)c1cccc(-c2ccc3nc(NCc4cccc(S(N)(=O)=O)c4)nc(NCC(F)(F)F)c3n2)c1` [Example 14, 3-{[6-(3-Methanesulfonyl-phenyl)-4-(2,2,2-trifluoro-ethylamino)-pyrido[3,2-d]pyrimidin-2-ylamino]-methyl}-benzenesulfonamide], the concentration giving a half-maximal response (EC50) in series [1] was < 100 nM. For the same compound, the CC50 at 3 days in series [2] (Table 1, 3 days incubation) fell in the range of 10 to 25 µM.
On to `NS(=O)(=O)c1ccc(CNc2nc(NC3(C(F)(F)F)CC3)c3nc(-c4ccc(F)cc4)ccc3n2)c(Cl)c1` [Example 43, 3-chloro-4-((6-(4-fluorophenyl)-4-(1-(trifluoromethyl)cyclopropyl-amino)pyrido[3,2-d]pyrimidin-2-ylamino)methyl)benzene-sulfonamide], for which the 50% effective concentration (EC50) in series [1] fell in the range of 250 to 2000 nM. The 50% cytotoxic concentration (CC50) at 3 days in series [2] (Table 2, 3 days incubation) is > 10 µM.
Consider `N#Cc1cc(F)ccc1-c1ccc2nc(NCc3cc(Cl)cc(S(N)(=O)=O)c3)nc(NC3(C(F)(F)F)CC3)c2n1` [Example 100, 3-chloro-5-((6-(2-cyano-4-fluorophenyl)-4-(1-(trifluoromethyl)cyclopropyl-amino)pyrido[3,2-d]pyrimidin-2-ylamino)methyl)benzene-sulfonamide], for which, in series [1], the concentration for a half-maximal effect (EC50) was < 100 nM. In series [2] (Table 2, 3 days incubation), this compound registered a CC50 at 3 days of 1 to 10 µM.
Regarding `CS(=O)(=O)c1cc(-c2ccc3nc(NCc4ccc(-n5cncn5)cc4)nc(NCC(F)(F)F)c3n2)ccc1OC(F)F` [Example 175, N^2-(4-(1H-1,2,4-triazol-1-yl)benzyl)-6-(4-(difluoro-methoxy)-3-(methylsulfonyl)phenyl)-N^4-(2,2,2-trifluoroethyl) pyrido[3,2-d]pyrimidine-2,4-diamine], in series [1], the EC50 is < 100 nM. For the same compound, the 50% cytotoxic concentration (CC50) at 3 days in series [2] (Table 2, 3 days incubation) is > 10 µM.
In series [1], `CC[C@@H](Nc1nc(NCC(F)(F)F)c2nc(-c3ccc(OC)c(S(C)(=O)=O)c3)ccc2n1)c1ccc(S(N)(=O)=O)cc1` [Example 154, 4-((R)-1-(6-(4-methoxy-3-(methylsulfonyl)phenyl)-4-(2,2,2-trifluoroethylamino)pyrido[3,2-d]pyrimidin-2-ylamino)propyl)benzene-sulfonamide] yielded a concentration giving a half-maximal response (EC50) of 100 to 250 nM. Besides, the half-maximal cytotoxic concentration (CC50) at 3 days in series [2] (Table 2, 3 days incubation) was > 10 µM.
On the same counts, the results for `NS(=O)(=O)c1ccc(CNc2nc(NC3(C(F)(F)F)CC3)c3nc(-c4ccc(OC(F)F)cc4)ccc3n2)cc1` [Example 61, 4-((6-(4-(difluoromethoxy)phenyl)-4-(1-(trifluoromethyl)cyclopropylamino)pyrido[3,2-d]pyrimidin-2-ylamino)methyl) benzenesulfonamide] are < 100 nM and 1 to 10 µM.
Take `COc1ccc(-c2ccc3nc(NCc4cccc(S(C)(=O)=O)c4)nc(NC4(C(F)(F)F)CC4)c3n2)cc1S(C)(=O)=O` [Example 35, N^2-(3-(methylsulfonyl)benzyl)-6-(4-methoxy-3-(methylsulfonyl)phenyl)-N^4-(1-(trifluoromethyl)cyclopropyl) pyrido[3,2-d]pyrimidine-2,4-diamine]: the EC50 in series [1] was < 100 nM. For the same compound, the 50% cytotoxic concentration (CC50) at 3 days in series [2] (Table 2, 3 days incubation) was 1 to 10 µM.
For `Cc1ccc(-c2ccc3nc(N[C@H](C)c4ccc(S(N)(=O)=O)cc4)nc(NCC(F)(F)F)c3n2)cc1S(C)(=O)=O` [Example 152, 4-((R)-1-(6-(4-methyl-3-(methylsulfonyl)phenyl)-4-(2,2,2-trifluoroethylamino)pyrido[3,2-d]pyrimidin-2-ylamino)ethyl)benzene-sulfonamide], in series [1], the 50% effective concentration (EC50) is < 100 nM. Besides, in series [2] (Table 2, 3 days incubation), the CC50 at 3 days is > 10 µM.
On to `C[C@H](Nc1nc(NCc2ccc(-n3cncn3)cc2)nc2ccc(-c3cccc(S(C)(=O)=O)c3)nc12)C(F)(F)F` [Example 187, N^2-(4-(1H-1,2,4-triazol-1-yl)benzyl)-6-(3-(methylsulfonyl)phenyl)-N^4-((S)-1,1,1-trifluoropropan-2-yl)pyrido [3,2-d]pyrimidine-2,4-diamine], for which, in series [1], the EC50 was < 100 nM. Also, the cytotoxic concentration (CC50) at 3 days in series [2] (Table 2, 3 days incubation) is > 10 µM.
`C[C@@H](Cn1cncn1)Nc1nc(NCC(F)(F)F)c2nc(-c3cccc(S(C)(=O)=O)c3)ccc2n1` [Example 169, N^2-((S)-1-(1H-1,2,4-triazol-1-yl)propan-2-yl)-6-(3-(methylsulfonyl)phenyl)-N^4-(2,2,2-trifluoroethyl)pyrido [3,2-d]pyrimidine-2,4-diamine] displayed an EC50 in series [1] of 250 to 2000 nM. For the same compound, the 50% cytotoxic concentration (CC50) at 3 days in series [2] (Table 2, 3 days incubation) was > 10 µM.
As to `COc1ccc(-c2ccc3nc(NCc4ccc(C)c(F)c4)nc(NCC(F)(F)F)c3n2)cc1S(C)(=O)=O` [Example 176, N^2-(3-fluoro-4-methylbenzyl)-6-(4-methoxy-3-(methylsulfonyl)phenyl)-N^4-(2,2,2-trifluoroethyl) pyrido[3,2-d]pyrimidine-2,4-diamine], the concentration giving a half-maximal response (EC50) in series [1] was < 100 nM. In series [2] (Table 2, 3 days incubation), this compound returned a 50% cytotoxic concentration (CC50) at 3 days of 1 to 10 µM.
As for `CS(=O)(=O)c1cccc(-c2ccc3nc(NCc4ccc(-n5cncn5)cc4)nc(NCC(F)(F)F)c3n2)c1` [Example 163, N^2-(4-(1H-1,2,4-triazol-1-yl)benzyl)-6-(3-(methylsulfonyl)phenyl)-N^4-(2,2,2-trifluoroethyl) pyrido[3,2-d]pyrimidine-2,4-diamine], the EC50 in series [1] is < 100 nM. In addition, the CC50 at 3 days in series [2] (Table 2, 3 days incubation) is > 10 µM.
